Source: patent US20110251379A1, “COMPOUNDS USEFUL FOR TREATING NEURODEGENERATIVE DISORDERS” (Satori Pharmaceuticals, Inc., priority 2010, published 2011)

The compounds below were run on Aβ-38 (assay: MSD Human (6E10) Ab 3-PLEX elisa, conditioned media of 2B7 cells: Aβ-38). Conditions: Homo sapiens; Aβ-38 (superscript a); read-out: 50% reduction value.
Assay type: cell-based
Outline: (§1)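 Confluent 2B7 cells were treated with compounds for 5 hours at 37° C in media with 1% DMSO. Conditioned media, diluted 1:1 in blocking buffer, was incubated overnight at 4 °C or 2 h at room temperature on MSD 6E10 plates. Aβ levels were read against seven-point standard curves, and IC50 was obtained from 4-parameter fits of percent vehicle.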
C[C@@H]1CC(COC(N)=O)OC2[C@H]1[C@@]1(C)CC[C@@]34C[C@@]35CC[C@H](O)C(C)(C)[C@@H]5CCC4[C@]1(C)[C@H]2O (some centres unmarked) gave an IC50 of over 10 µM. For CNC(=O)OCC1C[C@@H](C)[C@H]2C(O1)[C@H](O)[C@@]1(C)C3CC[C@H]4C(C)(C)[C@@H](O)CC[C@@]45C[C@@]35CC[C@]21C (some centres unmarked), the IC50 was 1 to 10 µM. C=C(C)CO[C@@H](C1C[C@@H](C)[C@H]2C(O1)[C@H](O)[C@@]1(C)C3CC[C@H]4C(C)(C)C(O)CC[C@@]45C[C@@]35CC[C@]21C)C(C)(C)O (some centres unmarked) gave an IC50 of under 1 µM. CO[C@@H](C1C[C@@H](C)[C@H]2C(O1)[C@H](O)[C@@]1(C)C3CC[C@H]4C(C)(C)C(OC(=O)NC5COC5)CC[C@@]45C[C@@]35CC[C@]21C)C(C)(C)O (some centres unmarked) was tested, and the IC50 was under 1 µM. CO[C@@H](C1C[C@@H](C)[C@H]2C(O1)[C@H](O)[C@@]1(C)C3CC[C@H]4C(C)(C)C(OC(=O)NC5CN(C)C5)CC[C@@]45C[C@@]35CC[C@]21C)C(C)(C)O (some centres unmarked) showed an IC50 of under 1 µM. CO[C@@H](C1C[C@@H](C)[C@H]2C(O1)[C@H](O)[C@@]1(C)C3CC[C@H]4C(C)(C)C(OC(=O)NC5CNC5)CC[C@@]45C[C@@]35CC[C@]21C)C(C)(C)O (some centres unmarked) gave an IC50 of under 1 µM. In the case of CC(C)[C@@H](OC(=O)N1CCC1)C1C[C@@H](C)[C@H]2C(O1)[C@H](O)[C@@]1(C)C3CC[C@H]4C(C)(C)C(OC(=O)N5CCN(S(C)(=O)=O)CC5)CC[C@@]45C[C@@]35CC[C@]21C (some centres unmarked), the IC50 is reported as under 1 µM. In the case of CC(=O)N1CCN(C(=O)OC2CC[C@]34C[C@]35CC[C@]3(C)[C@@H]6C(OC([C@H](OC(=O)N7CCC7)C(C)C)C[C@H]6C)[C@H](O)[C@@]3(C)C5CC[C@H]4C2(C)C)CC1 (some centres unmarked), the IC50 is reported as under 1 µM.

Same assay, conditions: Homo sapiens; Aβ-38 (superscript a); read-out: IC50 range
In the case of C=C(C)CO[C@@H](C1C[C@@H](C)[C@H]2C(O1)[C@H](O)[C@@]1(C)C3CC[C@H]4C(C)(C)C(O)CC[C@@]45C[C@@]35CC[C@]21C)C(C)(C)O (some centres unmarked), the IC50 is reported as under 1 µM. CO[C@@H](C1C[C@@H](C)[C@H]2C(O1)[C@H](O)[C@@]1(C)C3CC[C@H]4C(C)(C)C(OC(=O)NC5CN(C)C5)CC[C@@]45C[C@@]35CC[C@]21C)C(C)(C)O (some centres unmarked) was tested, and the IC50 was 1 to 10 µM. For CC(C)[C@@H](OC(=O)N1CCC1)C1C[C@@H](C)[C@H]2C(O1)[C@H](O)[C@@]1(C)C3CC[C@H]4C(C)(C)C(OC(=O)N5CCN(S(C)(=O)=O)CC5)CC[C@@]45C[C@@]35CC[C@]21C (some centres unmarked), the IC50 was under 1 µM. Work on CC(=O)N1CCN(C(=O)OC2CC[C@]34C[C@]35CC[C@]3(C)[C@@H]6C(OC([C@H](OC(=O)N7CCC7)C(C)C)C[C@H]6C)[C@H](O)[C@@]3(C)C5CC[C@H]4C2(C)C)CC1 (some centres unmarked) yielded an IC50 of under 1 µM.

Same assay, conditions: Homo sapiens; Aβ-38, 20 μM
C[C@@H]1CC(COC(N)=O)OC2[C@H]1[C@@]1(C)CC[C@@]34C[C@@]35CC[C@H](O)C(C)(C)[C@@H]5CCC4[C@]1(C)[C@H]2O (some centres unmarked) showed an inhibition at 20 µM of 25 to 75%. Compound CNC(=O)OCC1C[C@@H](C)[C@H]2C(O1)[C@H](O)[C@@]1(C)C3CC[C@H]4C(C)(C)[C@@H](O)CC[C@@]45C[C@@]35CC[C@]21C (some centres unmarked) has an inhibition at 20 µM of 25 to 75%.

These compounds were tested on Aβ-40 (assay: MSD Human (6E10) Ab 3-PLEX elisa, conditioned media of 2B7 cells: Aβ-40). Conditions: Homo sapiens, Aβ-40 (superscript b); read-out: 50% reduction value.
Assay type: cell-based
Outline: as §1
Work on C[C@@H]1CC(COC(N)=O)OC2[C@H]1[C@@]1(C)CC[C@@]34C[C@@]35CC[C@H](O)C(C)(C)[C@@H]5CCC4[C@]1(C)[C@H]2O (some centres unmarked) yielded an IC50 of over 10 µM. For C=C(C)CO[C@@H](C1C[C@@H](C)[C@H]2C(O1)[C@H](O)[C@@]1(C)C3CC[C@H]4C(C)(C)C(O)CC[C@@]45C[C@@]35CC[C@]21C)C(C)(C)O (some centres unmarked), the IC50 was 1 to 10 µM. CO[C@@H](C1C[C@@H](C)[C@H]2C(O1)[C@H](O)[C@@]1(C)C3CC[C@H]4C(C)(C)C(OC(=O)NC5CN(C)C5)CC[C@@]45C[C@@]35CC[C@]21C)C(C)(C)O (some centres unmarked) was tested, and the IC50 was 1 to 10 µM. With CO[C@@H](C1C[C@@H](C)[C@H]2C(O1)[C@H](O)[C@@]1(C)C3CC[C@H]4C(C)(C)C(OC(=O)NC5CNC5)CC[C@@]45C[C@@]35CC[C@]21C)C(C)(C)O (some centres unmarked) the IC50 was 1 to 10 µM. Work on CC(C)[C@@H](OC(=O)N1CCC1)C1C[C@@H](C)[C@H]2C(O1)[C@H](O)[C@@]1(C)C3CC[C@H]4C(C)(C)C(OC(=O)N5CCN(S(C)(=O)=O)CC5)CC[C@@]45C[C@@]35CC[C@]21C (some centres unmarked) yielded an IC50 of 1 to 10 µM. In the case of CC(=O)N1CCN(C(=O)OC2CC[C@]34C[C@]35CC[C@]3(C)[C@@H]6C(OC([C@H](OC(=O)N7CCC7)C(C)C)C[C@H]6C)[C@H](O)[C@@]3(C)C5CC[C@H]4C2(C)C)CC1 (some centres unmarked), the IC50 is reported as 1 to 10 µM.

Same assay, conditions: Homo sapiens, Aβ-40 (superscript b); read-out: IC50 range
C=C(C)CO[C@@H](C1C[C@@H](C)[C@H]2C(O1)[C@H](O)[C@@]1(C)C3CC[C@H]4C(C)(C)C(O)CC[C@@]45C[C@@]35CC[C@]21C)C(C)(C)O (some centres unmarked) showed an IC50 of 1 to 10 µM. CO[C@@H](C1C[C@@H](C)[C@H]2C(O1)[C@H](O)[C@@]1(C)C3CC[C@H]4C(C)(C)C(OC(=O)NC5CN(C)C5)CC[C@@]45C[C@@]35CC[C@]21C)C(C)(C)O (some centres unmarked) gave an IC50 of 1 to 10 µM. For CO[C@@H](C1C[C@@H](C)[C@H]2C(O1)[C@H](O)[C@@]1(C)C3CC[C@H]4C(C)(C)C(OC(=O)NC5CNC5)CC[C@@]45C[C@@]35CC[C@]21C)C(C)(C)O (some centres unmarked), the IC50 was 1 to 10 µM. For CC(C)[C@@H](OC(=O)N1CCC1)C1C[C@@H](C)[C@H]2C(O1)[C@H](O)[C@@]1(C)C3CC[C@H]4C(C)(C)C(OC(=O)N5CCN(S(C)(=O)=O)CC5)CC[C@@]45C[C@@]35CC[C@]21C (some centres unmarked), the IC50 was 1 to 10 µM. CC(=O)N1CCN(C(=O)OC2CC[C@]34C[C@]35CC[C@]3(C)[C@@H]6C(OC([C@H](OC(=O)N7CCC7)C(C)C)C[C@H]6C)[C@H](O)[C@@]3(C)C5CC[C@H]4C2(C)C)CC1 (some centres unmarked) was tested, and the IC50 was 1 to 10 µM.

Same assay, conditions: Homo sapiens; Aβ-40, 20 μM
With CNC(=O)OCC1C[C@@H](C)[C@H]2C(O1)[C@H](O)[C@@]1(C)C3CC[C@H]4C(C)(C)[C@@H](O)CC[C@@]45C[C@@]35CC[C@]21C (some centres unmarked) the inhibition at 20 µM was 25 to 75%. For CO[C@@H](C1C[C@@H](C)[C@H]2C(O1)[C@H](O)[C@@]1(C)C3CC[C@H]4C(C)(C)C(OC(=O)NC5COC5)CC[C@@]45C[C@@]35CC[C@]21C)C(C)(C)O (some centres unmarked), the inhibition at 20 µM was 25 to 75%.

These compounds were tested on Aβ-42 (assay: MSD Human (6E10) Ab 3-PLEX elisa, conditioned media of 2B7 cells: Aβ-42). Conditions: Homo sapiens; Aβ-42 (superscript c); read-out: 50% reduction value.
Assay type: cell-based
Outline: as §1
For CNC(=O)OCC1C[C@@H](C)[C@H]2C(O1)[C@H](O)[C@@]1(C)C3CC[C@H]4C(C)(C)[C@@H](O)CC[C@@]45C[C@@]35CC[C@]21C (some centres unmarked), the IC50 was 1 to 10 µM. In the case of C=C(C)CO[C@@H](C1C[C@@H](C)[C@H]2C(O1)[C@H](O)[C@@]1(C)C3CC[C@H]4C(C)(C)C(O)CC[C@@]45C[C@@]35CC[C@]21C)C(C)(C)O (some centres unmarked), the IC50 is reported as under 1 µM. Compound CO[C@@H](C1C[C@@H](C)[C@H]2C(O1)[C@H](O)[C@@]1(C)C3CC[C@H]4C(C)(C)C(OC(=O)NC5COC5)CC[C@@]45C[C@@]35CC[C@]21C)C(C)(C)O (some centres unmarked) has an IC50 of under 1 µM. With CO[C@@H](C1C[C@@H](C)[C@H]2C(O1)[C@H](O)[C@@]1(C)C3CC[C@H]4C(C)(C)C(OC(=O)NC5CN(C)C5)CC[C@@]45C[C@@]35CC[C@]21C)C(C)(C)O (some centres unmarked) the IC50 was under 1 µM. With CO[C@@H](C1C[C@@H](C)[C@H]2C(O1)[C@H](O)[C@@]1(C)C3CC[C@H]4C(C)(C)C(OC(=O)NC5CNC5)CC[C@@]45C[C@@]35CC[C@]21C)C(C)(C)O (some centres unmarked) the IC50 was under 1 µM. CC(C)[C@@H](OC(=O)N1CCC1)C1C[C@@H](C)[C@H]2C(O1)[C@H](O)[C@@]1(C)C3CC[C@H]4C(C)(C)C(OC(=O)N5CCN(S(C)(=O)=O)CC5)CC[C@@]45C[C@@]35CC[C@]21C (some centres unmarked) was tested, and the IC50 was under 1 µM. For CC(=O)N1CCN(C(=O)OC2CC[C@]34C[C@]35CC[C@]3(C)[C@@H]6C(OC([C@H](OC(=O)N7CCC7)C(C)C)C[C@H]6C)[C@H](O)[C@@]3(C)C5CC[C@H]4C2(C)C)CC1 (some centres unmarked), the IC50 was under 1 µM.

Same assay, conditions: Homo sapiens; Aβ-42 (superscript c); read-out: IC50 range
C=C(C)CO[C@@H](C1C[C@@H](C)[C@H]2C(O1)[C@H](O)[C@@]1(C)C3CC[C@H]4C(C)(C)C(O)CC[C@@]45C[C@@]35CC[C@]21C)C(C)(C)O (some centres unmarked) gave an IC50 of under 1 µM. For CO[C@@H](C1C[C@@H](C)[C@H]2C(O1)[C@H](O)[C@@]1(C)C3CC[C@H]4C(C)(C)C(OC(=O)NC5COC5)CC[C@@]45C[C@@]35CC[C@]21C)C(C)(C)O (some centres unmarked), the IC50 was under 1 µM. CO[C@@H](C1C[C@@H](C)[C@H]2C(O1)[C@H](O)[C@@]1(C)C3CC[C@H]4C(C)(C)C(OC(=O)NC5CN(C)C5)CC[C@@]45C[C@@]35CC[C@]21C)C(C)(C)O (some centres unmarked) gave an IC50 of under 1 µM. Compound CO[C@@H](C1C[C@@H](C)[C@H]2C(O1)[C@H](O)[C@@]1(C)C3CC[C@H]4C(C)(C)C(OC(=O)NC5CNC5)CC[C@@]45C[C@@]35CC[C@]21C)C(C)(C)O (some centres unmarked) has an IC50 of under 1 µM. Work on CC(C)[C@@H](OC(=O)N1CCC1)C1C[C@@H](C)[C@H]2C(O1)[C@H](O)[C@@]1(C)C3CC[C@H]4C(C)(C)C(OC(=O)N5CCN(S(C)(=O)=O)CC5)CC[C@@]45C[C@@]35CC[C@]21C (some centres unmarked) yielded an IC50 of under 1 µM. Work on CC(=O)N1CCN(C(=O)OC2CC[C@]34C[C@]35CC[C@]3(C)[C@@H]6C(OC([C@H](OC(=O)N7CCC7)C(C)C)C[C@H]6C)[C@H](O)[C@@]3(C)C5CC[C@H]4C2(C)C)CC1 (some centres unmarked) yielded an IC50 of under 1 µM.

Same assay, conditions: Homo sapiens; Aβ-42, 20 μM
C[C@@H]1CC(COC(N)=O)OC2[C@H]1[C@@]1(C)CC[C@@]34C[C@@]35CC[C@H](O)C(C)(C)[C@@H]5CCC4[C@]1(C)[C@H]2O (some centres unmarked) was tested, and the inhibition at 20 µM was 25 to 75%.
